This is an account of results in US10618901B2 (GlaxoSmithKline Intellectual Property Development Limited, priority 2014, dated 2020).

This experiment concerns the target T1, 6HIS-Tev-LRRK2 (1326-2527) (Homo sapiens, UniProt Q5S007).
T1 construct: A LRRK2 cDNA encoding residues 1326-2527 was received from Dundee University; made in house; host or cells: Spodoptera frugiperda Sf9 (baculovirus, pFB-HTb)
T1 sequence (Q5S007 1326-2527): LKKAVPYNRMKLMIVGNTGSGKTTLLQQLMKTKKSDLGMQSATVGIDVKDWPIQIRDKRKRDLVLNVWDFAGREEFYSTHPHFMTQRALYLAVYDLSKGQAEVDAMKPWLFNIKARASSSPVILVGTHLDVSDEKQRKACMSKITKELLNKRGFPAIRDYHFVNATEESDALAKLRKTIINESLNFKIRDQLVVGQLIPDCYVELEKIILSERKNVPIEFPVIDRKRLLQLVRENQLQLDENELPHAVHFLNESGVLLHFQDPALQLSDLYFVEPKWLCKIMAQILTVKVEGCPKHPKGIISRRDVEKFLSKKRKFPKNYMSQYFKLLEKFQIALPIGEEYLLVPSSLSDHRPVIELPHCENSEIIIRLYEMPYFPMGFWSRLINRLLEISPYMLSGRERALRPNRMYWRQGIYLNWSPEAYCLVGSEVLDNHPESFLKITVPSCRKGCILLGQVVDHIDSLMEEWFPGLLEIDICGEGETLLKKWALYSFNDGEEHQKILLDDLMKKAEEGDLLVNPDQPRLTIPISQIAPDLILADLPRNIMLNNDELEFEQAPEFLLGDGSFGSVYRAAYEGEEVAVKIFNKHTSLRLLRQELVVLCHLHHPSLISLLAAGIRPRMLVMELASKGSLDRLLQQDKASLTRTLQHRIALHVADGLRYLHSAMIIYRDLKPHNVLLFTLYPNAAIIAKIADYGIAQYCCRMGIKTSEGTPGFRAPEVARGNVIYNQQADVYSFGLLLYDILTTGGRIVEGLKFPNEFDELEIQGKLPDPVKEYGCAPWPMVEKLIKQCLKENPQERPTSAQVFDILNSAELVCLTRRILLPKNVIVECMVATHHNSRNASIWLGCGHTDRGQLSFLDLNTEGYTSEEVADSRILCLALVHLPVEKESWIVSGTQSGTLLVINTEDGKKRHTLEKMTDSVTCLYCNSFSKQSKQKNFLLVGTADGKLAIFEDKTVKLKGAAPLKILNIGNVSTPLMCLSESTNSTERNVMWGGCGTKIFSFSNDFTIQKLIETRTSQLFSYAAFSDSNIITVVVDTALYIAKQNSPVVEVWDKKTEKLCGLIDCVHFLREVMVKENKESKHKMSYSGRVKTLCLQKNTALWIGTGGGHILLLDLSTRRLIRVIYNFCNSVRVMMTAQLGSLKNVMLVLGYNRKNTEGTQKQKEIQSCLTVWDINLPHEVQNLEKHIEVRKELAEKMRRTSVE
As to the kind of experiment: Recombinant LRRK2 enzyme peptide substrate TR-FRET assay. It is filed as biochemical. The following applies: 60 nM LRRK2 enzyme; 10 uM ATP; read-out: pIC50 in the recombinant LRRK2 enzyme peptide substrate TR-FRET assay (converted). The procedure:
A LRRK2 cDNA encoding residues 1326-2527 was received from Dundee University (described in M. Jaleel et al., 2007, Biochem J, 405: 407-417). This gene fragment was subcloned into pFB-HTb (Invitrogen) using BamHI and NotI restriction sites. The LRRK2 plasmid was recombined into the baculovirus genome according to the BAC-to-BAC protocol described by Invitrogen. Transfection into Spodoptera frugiperda (Sf9) insect cells was performed using Cellfectin (Invitrogen), according to the manufacturer's protocol to generate P1 and P2 baculovirus stocks.
Sf9 cells were grown in HyClone SFX (Thermo Scientific) growth media at 27° C., 80 rpm in shake flask until of a sufficient volume to inoculate a bioreactor. The cells were grown in a 20 liter working volume Wave bioreactor (GE Healthcare) at 27° C., 50% dissolved oxygen and an agitation rate 22 rocks per minute, 10 degree rock angle, 200 ml/min air with a cell concentration of approximately 6×e6 cells/ml. The cells were infected with P2 Baculovirus at a multiplicity of infection (MOI) of 3. The cultivation was continued for a 48 hour expression phase. The infected cells were removed from the growth media by centrifugation at 2500 g using a Sorvall RC 3C Plus centrifuge at 2500 g for 20 minutes. The cell pellet was immediately frozen and subsequently supplied for purification.
A 260 g pellet was allowed to thaw in a water bath at 27° C. with 800 ml lysis buffer/buffer A (50 mm Tris-HCl pH 8.5, 300 mM NaCl, 1 mm DTT, 10% glycerol, 1 ml/L calbiochem complete protease inhibitor cocktail and benzonase (50 ul/800 ml)) before being dounce homogenised on ice using 20 strokes per 100 ml. The suspension was packed in ice and sonicated at 50% amplitude for 3 min 10 sec on/off using a ¾″ probe. The suspension was then centrifuged at 100,000 g for 90 min, at 4° C.
The lysate (700 ml) was decanted from the insoluble pellet and contacted for 3 h at 4 C with 10 ml His bind Ni NTA resin by end over end mixing. The resin was recovered by centrifugation, 3000 g, 5 min at 4 C, and packed in an XK16 column. The column was then washed with 10 column volumes buffer A, 10 column volumes buffer B (buffer A+1M NaCl) and 10 column volumes buffer C (buffer A+20 mM imidazole). The column was then eluted with 15 column volumes buffer D (buffer A+300 mM imidazole) collecting 2 ml fractions. All washes and elution were conducted at 4 ml/min.
Fractions identified by SDS-PAGE as containing protein of interest were pooled and loaded directly onto a 320 ml SEC Superdex 200 pg column that was pre-equilibrated with buffer E (50 mM Tris-HCl pH 8.5, 300 mM NaCl, 10% glycerol, 1 mM DTT). The column was loaded and eluted with 1.2 column volumes buffer E at 2 ml/min collecting 2 ml fractions. Fractions identified by SDS-PAGE as containing protein of interest were tested for activity.
Production of Biotin-Loner LRRKtide
The peptide (biotin-[…]-OH) was assembled at a […] scale using FMOC solid phase peptide synthesis on an ACT 357 MPS automated peptide synthesizer. The resulting crude peptide was cleaved from the resin using a 95:2.5:2.5 mix of trifluoroacetic acid: triisopropylsilane: water. The crude cleaved peptide was purified by reverse phase HPLC, eluting with a 5-35% gradient of 0.1% trifluoroacetic acid/acetonitrile in 0.1% trifluoroacetic acid/water.
Recombinant LRRK2 Enzyme Peptide Substrate TR-FRET Assay
This assay for LRRK2 inhibition is based on the detection of phosphorylation of the peptide ‘longer LRRKtide’ (biotin-[…]-OH) using a time resolved-fluorescence resonance energy transfer (TR-FRET) assay. It uses an antibody labelled europium chelate donor, W-1024 (Eu) and Streptavidin-Surelight APC acceptor (APC). When in close proximity, the excitation of Eu at 330 nm leads to energy transfer to APC with emission of light at 665 nm,
Assay Protocol • 1. A 10 mM test compound was dissolved in 100% DMSO and serially diluted 1 in 4. […]
On the technique in general: TR-FRET usually uses a lanthanide donor and a delayed reading to cut background.

`CCOc1nc(Nc2cnn(C3CCCC3(C)O)c2C)nc2[nH]ccc12` (single isomer, unassigned) [Example E78, trans-2-(4-((4-ethoxy-7H-pyrrolo-[2,3-d]pyrimidin-2-yl)amino)-5-methyl-1H-pyrazol-1-yl)-1-methylcyclopentanol]: the IC50 was at most 0.1 µM.
For `CCOc1nc(Nc2cn(C3CCN(C)CC3)nc2C)nc2[nH]ccc12` [Example E19, 4-ethoxy-N-(3-methyl-1-(1-methylpiperidin-4-yl)-1H-pyrazol-4-yl)-7H-pyrrolo-[2,3-d]-pyrimidin-2-amine] the value was at most 0.1 µM.
For `Cc1c(Nc2nc(OCC3CC3)c3cn[nH]c3n2)cnn1CC(C)(C)O` [Example E24, 1-(4-((4-(cyclopropylmethoxy)-1H-pyrazolo-[3,4-d]-pyrimidin-6-yl)amino)-5-methyl-1H-pyrazol-1-yl)-2-methylpropan-2-ol] the value was at most 0.1 µM.
